Measurements taken from patent US20240165209A1, “PLACENTAL ALKALINE PHOSPHATASE FOR REDUCING THE LOSS OF RED BLOOD CELLS, WHITE BLOOD CELLS, AND PLATELETS IN CHEMOTHERAPY TREATED CANCER PATIENTS” (ZOLTAN LABORATORIES, LLC, priority 2021, published 2024).

Assays:
[1] = test system: mouse bone marrow-derived hematopoietic stem cells (HSCs); conditions: 200 μM Cyp, 3 days, absence of PLAP
Protocol: Bone marrow was harvested by flushing bones from female C57/BL/6 mice in Fischer medium (Thermo Fisher Scientific; catalogue no. 21475025) containing 20% horse serum (Hyclone, Logan, UT), 100 Unit/ml penicillin, […] streptomycin (Gibco, BRL), 0.015 fungizone (Gibco, BRL), and 0.1 μM hydrocortisone sodium succinate (SynoPharm; Hamburg, Germany). Pooled stem cells were seeded into 25 cm 3 flasks (10 ml cell suspension) and after 3 days of incubation at 33° C. in 5% CO2 in air in the absence of PLAP, they were plated into 12-well plates and were incubated in the absence (n=8) or presence of 50 μg/ml PLAP (n=8) for additional 3 days.
In a follow up experiment with hematopoietic stem cells, the same incubation medium in 12-well plates contained either no other addition (n=8) or contained 200 μM Cyp without (n=8) or with 50 μg/ml PLAP (n=8) for 3 days.

[2] = test system: blood cells (RBCs, WBCs, platelets) of T47D tumor bearing mice; assay: Experiment 2: blood cell counts in Cyp-treated T47D tumor bearing mice, last sample day 10; assay type: in vivo, mouse; conditions: Cyp 120 mg/kg, PLAP 7.5 mg/kg days 0, 2, 4, 6
Protocol: In the two experiments performed, first-generation hybrid BDF1 (C57BL/6 female×DBA/2 male) 10 weeks old adult female mice bearing T47D tumors (2.6-3.3 cm 3 volume) were used.
The second experiment was performed with T47D tumor bearing mice similarly to the one described to TABLE 2, except that one group of Cyp (120 mg/kg) treated mice were co-treated treated with PLAP (7.5 mg/kg) on days 0, 2, 4, and 6. […] The data shown is the average of 6 independent determinations±S.D.

[3] = test system: nucleated bone marrow cells (BM); assay: Nucleated bone marrow (BM) cells per femur in Cyp treated T47D tumor bearing mice; assay type: in vivo, mouse; conditions: Cyp 120 mg/kg i.p. daily x6, PLAP 7.5 mg/kg s.c. days 0, 2, 4, 6
Protocol: Again, first-generation hybrid BDF1 (C57BL/6 female×DBA/2 male) 10 weeks old adult female mice bearing T47D tumors (2.6-3.3 cm^3) were used. In the first group, mice received no treatment. In the second and third groups, mice were administered 120 mg/kg of Cyp intraperitoneally once a day for 6 consecutive days. In a third group, mice were also administered 7.5 mg/kg of PALP subcutaneously on days 0, 2, 4 and 6. On the days indicated in TABLE 4, the animals were killed, then the bone marrow was flushed from the femurs with Iscove's modified Dulbecco's medium (Gibco BRL, Gaithersburg, MD, USA). This was followed by standard erythrocyte lysis and then by counting the number of nucleated bone marrow (BM) cells per femur using a hemocytometer.

**Q.** What does the source list for `O.O=P1(N(CCCl)CCCl)NCCCO1` (centres unmarked) [Cyp, 2-[Bis (2-chloroethyl)amino] tetrahydro-2H-1,3,2-oxazaphosphorine 2-oxide monohydrate]?
**A.** decrease of the number of cells by Cyp [1]: 52%; Platelets ([2]; day 0): 1,185 ± 101^ ×10^−3/μl; RBCs ([2]; day 0): 9.51 ± 0.70 ×10^−6/μl; WBCs ([2]; day 0): 8.86 ± 0.61 ×10^−3/μl; Platelets ([2]; day 6): 372 ± 57 ×10^−3/μl; RBCs ([2]; day 6): 4.83 ± 0.62 ×10^−6/μl; WBCs ([2]; day 6): 2.79 ± 0.47 ×10^−3/μl; Platelets ([2]; day 10): 746 ± 92 ×10^−3/μl; RBCs ([2]; day 10): 6.88 ± 0.61 ×10^−6/μl; WBCs ([2]; day 10): 6.15 ± 0.45 ×10^−3/μl; Nucleated BM cells/femur ([3]; day 0): 14.11 ± 1.50 ×10^6; Nucleated BM cells/femur ([3]; day 3): 9.32 ± 2.32 ×10^6; Nucleated BM cells/femur ([3]; day 6): 3.10 ± 2.26 ×10^6; Nucleated BM cells/femur ([3]; day 9): 4.90 ± 2.17 ×10^6
